The target in this experiment is BoNT/A LC (Clostridium botulinum, UniProt P0DPI0). Nature of the experiment: biochemical. The class given is biochemical.
Chain of BoNT/A LC (P0DPI0 2-448 limits assumed): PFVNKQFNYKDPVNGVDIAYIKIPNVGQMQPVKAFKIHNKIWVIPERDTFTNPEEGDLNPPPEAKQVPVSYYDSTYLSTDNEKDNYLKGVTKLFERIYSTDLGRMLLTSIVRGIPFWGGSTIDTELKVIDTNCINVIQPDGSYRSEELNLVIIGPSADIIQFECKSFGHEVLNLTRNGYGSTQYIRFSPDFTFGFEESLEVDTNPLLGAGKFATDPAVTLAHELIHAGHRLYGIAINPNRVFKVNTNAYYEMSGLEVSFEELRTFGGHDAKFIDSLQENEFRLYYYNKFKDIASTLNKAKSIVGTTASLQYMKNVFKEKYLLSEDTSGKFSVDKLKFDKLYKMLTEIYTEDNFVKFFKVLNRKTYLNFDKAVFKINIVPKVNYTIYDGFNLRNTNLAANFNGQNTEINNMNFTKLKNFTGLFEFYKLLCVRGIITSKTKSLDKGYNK

Consider “2-(((4-Chlorobenzyl)amino)methyl)-4H-pyrido [1,2-a]pyrimidin-4-one [Compound 10]”, for which the “inhibitory activity against BoNT/A LC (in words)” value (from here on “inhibitory activity”) is reported as “complete ablation of inhibitory activity”. What is called IC50 is the concentration that gives 50% inhibition. The low end stands for greater potency, the high end for weaker potency. With `O=C(O)[C@@H]1CN(Cc2cc(=O)n3cccc(O)c3n2)C[C@H]1c1ccccn1` [Compound 3], half-maximal inhibition (IC50) required 1.3 ± 0.2 µM and the “fold more potent than initial lead 1” value was “approximately seven-fold”. The compound `CC(O)c1cc2n(n1)CCN(Cc1cc(=O)n3cccc(O)c3n1)C2` (stereo not shown) [Compound 4] displayed a half-inhibitory concentration (IC50) of 7 ± 1 µM. In the case of `CCc1cc(=O)n2cccc(O)c2n1` [Compound 6, 2-Ethyl-9-hydroxy-4H-pyrido [1,2-a]pyrimidin-4-one], the “inhibitory activity” value is “a decrease in inhibitory potency”. For the compound `O=c1cc(CCCc2ccccc2)nc2c(O)cccn12` [Compound 7, 9-Hydroxy-2-(3-phenylpropyl)-4H-pyrido [1,2-a]pyrimidin-4-one], the “inhibitory activity” value is “drastic decrease in inhibitory activity”. Same read-out and setting: the result for `CCOc1cccn2c(=O)cc(CNCc3ccccc3)nc12` [Compound 11, 2-((Benzylamino)methyl)-9-ethoxy-4H-pyrido [1,2-a]pyrimidin-4-one] reads “had a similar effect”; that for `NCc1cc(=O)n2cccc(O)c2n1` [Compound 13, 2-(Aminomethyl)-9-hydroxy-4H-pyrido [1,2-a]pyrimidin-4-one], “a decrease in inhibitory potency”. The compound `Oc1cccc2ccc(CNCc3ccccc3)nc12` [Compound 14, 2-((Benzylamino)methyl)quinolin-8-ol] yielded a decrease in inhibition of 15 fold. Compound `CN(C)Cc1cc(=O)n2cccc(O)c2n1` [Compound 15, 2-((Dimethylamino)methyl)-9-hydroxy-4H-pyrido [1,2-a]pyrimidin-4-one] yielded an IC50 of more than 64 µM. On the same count and under the same terms, the result for `O=c1cc(CNCc2cccc(F)c2)nc2c(O)cccn12` [Compound 16, 2-(((3-Fluorobenzyl)amino)methyl)-9-hydroxy-4H-pyrido [1,2-a]pyrimidin-4-one] reads 0.6 ± 0.1 µM; that for `O=c1cc(CNCc2ccc(F)cc2)nc2c(O)cccn12` [Compound 17, 2-(((4-Fluorobenzyl)amino)methyl)-9-hydroxy-4H-pyrido [1,2-a]pyrimidin-4-one], 1.2 ± 0.2 µM. The same measure, in the same setting: the result for `O=c1cc(CNCc2ccc(Cl)cc2)nc2c(O)cccn12` [Compound 19, 2-(((4-Chlorobenzyl)amino)methyl)-9-hydroxy-4H-pyrido [1,2-a]pyrimidin-4-one] reads 1.1 ± 0.1 µM. `COc1cccc(CNCc2cc(=O)n3cccc(O)c3n2)c1` [Compound 20, 9-Hydroxy-2-(((3-methoxybenzyl)amino)methyl)-4H-pyrido [1,2-a]pyrimidin-4-one] gave an IC50 of 0.49 ± 0.09 µM. Still for that read-out and setting: the result for `COc1ccc(CNCc2cc(=O)n3cccc(O)c3n2)cc1` [Compound 21, 9-Hydroxy-2-(((4-methoxybenzyl)amino)methyl)-4H-pyrido [1,2-a]pyrimidin-4-one] reads 1.9 ± 0.2 µM.

`Cc1cccc(CNCc2cc(=O)n3cccc(O)c3n2)c1` [Compound 22, 9-Hydroxy-2-(((3-methylbenzyl)amino)methyl)-4H-pyrido [1,2-a]pyrimidin-4-one] yielded an IC50 of 0.5 ± 0.1 µM.

For the compound `Cc1ccc(CNCc2cc(=O)n3cccc(O)c3n2)cc1` [Compound 23, 9-Hydroxy-2-(((4-methylbenzyl)amino)methyl)-4H-pyrido [1,2-a]pyrimidin-4-one], the IC50 worked out at 1.4 ± 0.9 µM. As for `COC(=O)c1cccc(CNCc2cc(=O)n3cccc(O)c3n2)c1` [Compound 24, Methyl 3-((((9-hydroxy-4-oxo-4H-pyrido [1,2-a]pyrimidin-2-yl)methyl)amino)methyl) benzoate], the IC50 turned out to be 0.41 ± 0.08 µM.

The compound `COC(=O)c1ccc(CNCc2cc(=O)n3cccc(O)c3n2)cc1` [Compound 25, Methyl 4-((((9-hydroxy-4-oxo-4H-pyrido [1,2-a]pyrimidin-2-yl)methyl)amino)methyl) benzoate] returned an IC50 of more than 64 µM. The same measure, in the same setting: the result for `O=c1cc(CNCc2cccc(-c3ccccc3)c2)nc2c(O)cccn12` [Compound 26, 2-((([1,1′-biphenyl]-3-ylmethyl)amino)methyl)-9-hydroxy-4H-pyrido [1,2-a]pyrimidin-4-one] reads 0.6 ± 0.1 µM; that for `CN(Cc1ccc(-c2ccccc2)cc1)Cc1cc(=O)n2cccc(O)c2n1` [Compound 28, 2-((([1,1′-biphenyl]-4-ylmethyl)(methyl)amino)methyl)-9-hydroxy-4H-pyrido [1,2-a]pyrimidin-4-one], 12 ± 0.2 µM. The same measure, in the same setting: the result for `O=c1cc(CNCCc2ccccc2)nc2c(O)cccn12` [Compound 29, 9-Hydroxy-2-((phenethylamino)methyl)-4H-pyrido [1,2-a]pyrimidin-4-one] reads 10 ± 1 µM. On the same count and under the same terms, the result for `O=c1cc(COCc2ccccc2)nc2c(O)cccn12` [Compound 30, 2-((Benzyloxy)methyl)-9-hydroxy-4H-pyrido [1,2-a]pyrimidin-4-one] reads 2.5 ± 0.3 µM; that for `O=c1cc(COCc2ccccc2F)nc2c(O)cccn12` [Compound 31, 2-(((2-Fluorobenzyl)oxy)methyl)-9-hydroxy-4H-pyrido [1,2-a]pyrimidin-4-one], 18 ± 2 µM. Take `O=c1cc(COCc2ccc(F)cc2)nc2c(O)cccn12` [Compound 33, 2-(((4-Fluorobenzyl)oxy)methyl)-9-hydroxy-4H-pyrido [1,2-a]pyrimidin-4-one]: the IC50 was 15 ± 1 µM. Still for that read-out and setting: under `O=c1cc(COCc2ccccc2Cl)nc2c(O)cccn12` [Compound 34, 2-(((2-Chlorobenzyl)oxy)methyl)-9-hydroxy-4H-pyrido [1,2-a]pyrimidin-4-one] stands 9 ± 2 µM; under `O=c1cc(COCc2ccc(Cl)cc2)nc2c(O)cccn12` [Compound 36, 2-(((4-Chlorobenzyl)oxy)methyl)-9-hydroxy-4H-pyrido [1,2-a]pyrimidin-4-one], 4.13 ± 0.09 µM; under `O=c1cc(COCc2cccc(O)c2)nc2c(O)cccn12` [Compound 37, 9-Hydroxy-2-(((3-hydroxybenzyl)oxy)methyl)-4H-pyrido [1,2-a]pyrimidin-4-one], 26 ± 2 µM. Still for that read-out and setting: under `Cc1cccc(COCc2cc(=O)n3cccc(O)c3n2)c1` [Compound 38, 9-Hydroxy-2-(((3-methylbenzyl)oxy)methyl)-4H-pyrido [1,2-a]pyrimidin-4-one] stands 6.6 ± 0.5 µM; under `Cc1ccc(COCc2cc(=O)n3cccc(O)c3n2)cc1` [Compound 39, 9-Hydroxy-2-(((4-methylbenzyl)oxy)methyl)-4H-pyrido [1,2-a]pyrimidin-4-one], 9.1 ± 0.5 µM; under `O=c1cc(COCc2cccc([N+](=O)[O-])c2)nc2c(O)cccn12` [Compound 40, 9-Hydroxy-2-(((3-nitrobenzyl)oxy)methyl)-4H-pyrido [1,2-a]pyrimidin-4-one], 9.7 ± 0.8 µM. On the same count and under the same terms, under `COc1cc(COCc2cc(=O)n3cccc(O)c3n2)cc(OC)c1` [Compound 41, 2-(((3,5-Dimethoxybenzyl)oxy)methyl)-9-hydroxy-4H-pyrido [1,2-a]pyrimidin-4-one] stands 5.2 ± 0.2 µM. For `O=c1cc(CN2Cc3ccccc3C2)nc2c(O)cccn12` [Compound 42, 9-Hydroxy-2-(isoindolin-2-ylmethyl)-4H-pyrido [1,2-a]pyrimidin-4-one], the IC50 is 1.2 ± 0.1 µM and the “potency compared to 2 (in words)” value was “equipotent”.

The record behind these values is article PMC10001950 (International Journal of Molecular Sciences, 2023).
